Records with an inconclusive call do not appear. Active and inactive are the calls of the source. No rule for the calls is given here.

The record followed here is PubChem BioAssay AID1436 (PCMD, 2008).

For this test, the target named is DNA repair protein RAD51 homolog 1 (Homo sapiens) (UniProt Q06609). The test can be described thus: RAD51-DNA association blockers – biochemical, fluorescence, dose response (AID 1436). Conditions: RAD51 DNA binding.
Sequence of DNA repair protein RAD51 homolog 1 (Homo sapiens) (Q06609 whole entry, looked up): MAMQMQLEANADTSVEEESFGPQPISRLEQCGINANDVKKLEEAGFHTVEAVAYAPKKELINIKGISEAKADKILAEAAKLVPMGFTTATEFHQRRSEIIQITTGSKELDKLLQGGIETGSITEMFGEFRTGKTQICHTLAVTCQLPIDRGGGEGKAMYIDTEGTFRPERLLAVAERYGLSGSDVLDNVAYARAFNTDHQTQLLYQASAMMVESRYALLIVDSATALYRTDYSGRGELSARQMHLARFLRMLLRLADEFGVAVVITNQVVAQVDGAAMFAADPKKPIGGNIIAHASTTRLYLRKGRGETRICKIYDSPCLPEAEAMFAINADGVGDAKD

Usually IC50 stands for the concentration that gives 50% inhibition. As to `COC(=O)c1ccc(=O)c2nc3/c(=C/O)c(O)cc(=O)c3[nH]c12`, the IC50 is > 42.5 µM (inactive).

On to `COc1cccc2c1C(=O)c1c(O)c3c(c(O)c1C2=O)C[C@@](O)(C(=O)CO)C[C@@H]3O[C@H]1C[C@H](N)[C@@H](O)[C@H](C)O1`, for which the IC50 was > 85 µM (inactive).
